In ChEMBL document CHEMBL5303761, “Data for DCP probe BI-3231” (2023):

Columns and labels:
[1] = target: T1, Muscarinic acetylcholine receptor M1 (Homo sapiens) (UniProt P11229); details: Compound concentration 10.0 uM
T1 sequence (whole entry): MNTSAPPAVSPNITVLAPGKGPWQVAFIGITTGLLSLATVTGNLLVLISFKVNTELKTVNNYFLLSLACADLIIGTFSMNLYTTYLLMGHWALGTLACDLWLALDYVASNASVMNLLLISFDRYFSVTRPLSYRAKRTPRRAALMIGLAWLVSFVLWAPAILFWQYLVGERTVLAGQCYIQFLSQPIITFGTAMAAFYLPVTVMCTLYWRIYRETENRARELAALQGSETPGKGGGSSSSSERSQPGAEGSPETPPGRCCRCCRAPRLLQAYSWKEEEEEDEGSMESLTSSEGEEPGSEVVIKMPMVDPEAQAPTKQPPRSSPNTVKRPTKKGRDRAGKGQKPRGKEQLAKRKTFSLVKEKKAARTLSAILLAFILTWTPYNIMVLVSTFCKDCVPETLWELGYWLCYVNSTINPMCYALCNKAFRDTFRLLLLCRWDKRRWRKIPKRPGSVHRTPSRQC

[2] = target: 5-hydroxytryptamine receptor 6 (Homo sapiens) (UniProt P50406); details: Compound concentration 10.0 uM
5-hydroxytryptamine receptor 6 (Homo sapiens), sequence (P50406 whole entry): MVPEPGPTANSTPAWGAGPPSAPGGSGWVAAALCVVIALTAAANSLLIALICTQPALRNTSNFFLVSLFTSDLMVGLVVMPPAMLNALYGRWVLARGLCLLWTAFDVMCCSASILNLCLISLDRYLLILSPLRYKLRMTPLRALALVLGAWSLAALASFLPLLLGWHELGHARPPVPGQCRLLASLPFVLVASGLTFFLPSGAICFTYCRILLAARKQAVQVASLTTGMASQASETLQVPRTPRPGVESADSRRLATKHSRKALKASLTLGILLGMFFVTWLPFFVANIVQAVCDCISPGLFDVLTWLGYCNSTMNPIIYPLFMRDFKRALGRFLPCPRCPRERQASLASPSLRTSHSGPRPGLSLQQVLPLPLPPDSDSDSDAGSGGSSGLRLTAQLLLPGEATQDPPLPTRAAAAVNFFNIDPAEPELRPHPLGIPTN

[3] = target: T2, 5-hydroxytryptamine receptor 1A (Homo sapiens) (UniProt P08908); details: Compound concentration 10.0 uM
T2 sequence (whole entry): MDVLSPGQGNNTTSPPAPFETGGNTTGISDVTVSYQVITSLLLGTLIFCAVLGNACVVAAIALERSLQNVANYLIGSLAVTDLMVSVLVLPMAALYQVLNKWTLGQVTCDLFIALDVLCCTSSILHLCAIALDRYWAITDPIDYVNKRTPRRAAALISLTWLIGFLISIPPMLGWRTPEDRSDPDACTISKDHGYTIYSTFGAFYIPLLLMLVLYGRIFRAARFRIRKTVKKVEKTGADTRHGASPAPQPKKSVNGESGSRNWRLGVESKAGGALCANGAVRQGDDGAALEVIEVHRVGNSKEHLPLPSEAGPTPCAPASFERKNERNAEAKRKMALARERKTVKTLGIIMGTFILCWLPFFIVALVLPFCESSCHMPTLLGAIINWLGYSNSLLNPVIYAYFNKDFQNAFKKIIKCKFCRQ

[4] = target: D(1A) dopamine receptor (Homo sapiens) (UniProt P21728); details: Compound concentration 10.0 uM
D(1A) dopamine receptor (Homo sapiens), sequence (P21728 whole entry): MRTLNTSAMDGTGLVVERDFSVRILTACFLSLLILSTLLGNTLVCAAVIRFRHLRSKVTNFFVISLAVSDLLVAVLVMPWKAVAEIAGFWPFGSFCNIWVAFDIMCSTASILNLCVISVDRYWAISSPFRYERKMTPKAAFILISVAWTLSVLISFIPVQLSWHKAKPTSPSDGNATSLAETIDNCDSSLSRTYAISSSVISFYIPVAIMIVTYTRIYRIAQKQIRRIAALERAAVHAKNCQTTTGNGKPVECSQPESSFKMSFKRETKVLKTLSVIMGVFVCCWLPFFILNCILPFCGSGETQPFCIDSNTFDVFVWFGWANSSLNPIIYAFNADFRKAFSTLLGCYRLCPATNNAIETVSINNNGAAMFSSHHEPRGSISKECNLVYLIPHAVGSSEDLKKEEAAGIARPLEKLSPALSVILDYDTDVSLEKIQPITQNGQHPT

[5] = target: D(2) dopamine receptor (Homo sapiens) (UniProt P14416); details: Compound concentration 10.0 uM
D(2) dopamine receptor (Homo sapiens), sequence (P14416 whole entry): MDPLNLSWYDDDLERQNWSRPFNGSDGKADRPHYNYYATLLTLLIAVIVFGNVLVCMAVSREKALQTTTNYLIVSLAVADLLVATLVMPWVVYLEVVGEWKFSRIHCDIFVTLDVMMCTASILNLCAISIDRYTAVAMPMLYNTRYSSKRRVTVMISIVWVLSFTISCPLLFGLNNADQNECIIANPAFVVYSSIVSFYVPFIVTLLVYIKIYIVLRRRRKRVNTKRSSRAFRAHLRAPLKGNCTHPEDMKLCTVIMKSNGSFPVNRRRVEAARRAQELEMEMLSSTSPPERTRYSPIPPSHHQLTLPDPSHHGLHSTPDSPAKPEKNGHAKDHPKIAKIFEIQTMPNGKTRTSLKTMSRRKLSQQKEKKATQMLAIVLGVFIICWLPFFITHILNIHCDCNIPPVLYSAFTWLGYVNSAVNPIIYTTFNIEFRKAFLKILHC

[6] = target: 5-hydroxytryptamine receptor 2C (Homo sapiens) (UniProt P28335); details: Compound concentration 10.0 uM
5-hydroxytryptamine receptor 2C (Homo sapiens), sequence (P28335 whole entry): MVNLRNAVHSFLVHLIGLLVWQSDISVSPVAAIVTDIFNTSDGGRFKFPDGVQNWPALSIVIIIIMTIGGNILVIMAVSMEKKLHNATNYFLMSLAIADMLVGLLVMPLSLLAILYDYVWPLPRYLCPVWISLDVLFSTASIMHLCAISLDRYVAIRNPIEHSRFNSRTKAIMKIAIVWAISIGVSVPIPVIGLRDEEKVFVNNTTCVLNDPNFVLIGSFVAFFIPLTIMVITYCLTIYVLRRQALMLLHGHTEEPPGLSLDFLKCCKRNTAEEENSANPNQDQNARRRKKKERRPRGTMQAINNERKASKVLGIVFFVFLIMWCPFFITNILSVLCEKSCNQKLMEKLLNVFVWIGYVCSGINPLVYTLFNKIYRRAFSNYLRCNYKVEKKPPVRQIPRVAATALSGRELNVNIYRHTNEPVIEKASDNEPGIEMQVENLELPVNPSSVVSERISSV

[7] = target: Estradiol 17-beta-dehydrogenase 11 (Homo sapiens, UniProt Q8NBQ5); assay: Enzymatic assay (hHSD17B11); format: functional
Estradiol 17-beta-dehydrogenase 11, sequence (Q8NBQ5 whole entry): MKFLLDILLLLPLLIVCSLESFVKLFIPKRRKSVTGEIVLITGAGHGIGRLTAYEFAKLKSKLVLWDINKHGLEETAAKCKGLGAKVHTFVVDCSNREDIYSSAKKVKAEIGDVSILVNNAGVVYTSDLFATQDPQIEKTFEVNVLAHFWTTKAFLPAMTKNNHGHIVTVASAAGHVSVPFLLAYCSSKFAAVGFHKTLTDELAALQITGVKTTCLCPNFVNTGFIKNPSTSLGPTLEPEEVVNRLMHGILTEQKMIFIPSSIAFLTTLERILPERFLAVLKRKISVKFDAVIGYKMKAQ

[8] = target: MAO-A (Rattus norvegicus, UniProt P21396); assay: MAO-A_ANTAG Eurofins SafetyScreen44 (BI); set-up: scale not given: the % may be the effect or the level left; details: compound concentration 10 uM, read-out: % Ctrl
MAO-A, sequence (P21396 whole entry): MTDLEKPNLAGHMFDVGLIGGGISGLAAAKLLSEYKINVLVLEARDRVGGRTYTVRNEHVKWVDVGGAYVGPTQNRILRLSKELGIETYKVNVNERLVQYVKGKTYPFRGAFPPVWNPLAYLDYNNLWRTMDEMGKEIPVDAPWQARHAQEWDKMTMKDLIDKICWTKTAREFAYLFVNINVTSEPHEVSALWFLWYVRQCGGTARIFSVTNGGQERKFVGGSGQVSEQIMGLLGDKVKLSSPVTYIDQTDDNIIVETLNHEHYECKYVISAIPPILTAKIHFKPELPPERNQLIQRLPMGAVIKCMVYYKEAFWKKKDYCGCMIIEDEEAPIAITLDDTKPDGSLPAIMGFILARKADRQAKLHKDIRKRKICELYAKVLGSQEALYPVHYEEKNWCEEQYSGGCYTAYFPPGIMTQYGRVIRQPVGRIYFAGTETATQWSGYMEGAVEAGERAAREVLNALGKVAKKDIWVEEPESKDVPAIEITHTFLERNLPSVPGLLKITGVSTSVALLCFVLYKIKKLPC

[9] = target: Sigma intracellular receptor 2 (Homo sapiens) (UniProt Q5BJF2); details: Compound concentration 10.0 uM
Sigma intracellular receptor 2 (Homo sapiens), sequence (Q5BJF2 whole entry): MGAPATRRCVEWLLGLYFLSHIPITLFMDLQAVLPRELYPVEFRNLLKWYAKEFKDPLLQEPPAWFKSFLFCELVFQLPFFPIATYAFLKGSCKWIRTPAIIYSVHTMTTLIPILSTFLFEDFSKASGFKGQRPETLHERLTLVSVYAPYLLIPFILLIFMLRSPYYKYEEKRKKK

[10] = target: Beta-1 adrenergic receptor (Homo sapiens) (UniProt P08588); details: Compound concentration 10.0 uM
Beta-1 adrenergic receptor (Homo sapiens), sequence (P08588 whole entry, looked up): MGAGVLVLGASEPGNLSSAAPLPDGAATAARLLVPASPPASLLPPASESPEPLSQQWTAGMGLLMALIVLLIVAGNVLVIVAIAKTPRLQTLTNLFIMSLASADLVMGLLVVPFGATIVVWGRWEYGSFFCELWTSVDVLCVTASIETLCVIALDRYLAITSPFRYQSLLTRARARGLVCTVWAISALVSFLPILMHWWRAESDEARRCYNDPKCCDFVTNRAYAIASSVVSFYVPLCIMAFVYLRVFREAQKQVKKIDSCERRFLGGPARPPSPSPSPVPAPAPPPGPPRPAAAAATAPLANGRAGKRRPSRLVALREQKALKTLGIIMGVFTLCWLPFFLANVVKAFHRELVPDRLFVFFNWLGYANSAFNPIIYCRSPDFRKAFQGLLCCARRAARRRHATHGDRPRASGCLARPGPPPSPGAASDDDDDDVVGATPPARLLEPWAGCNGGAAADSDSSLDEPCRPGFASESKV

[11] = target: hERG (KCNH2) (Homo sapiens, UniProt Q12809); assay: HERG_DOFETILIDE Eurofins SafetyScreen44 (BI); details: probe [3H]dofetilide, compound concentration 10 uM, read-out: % Ctrl
hERG (KCNH2), sequence (Q12809 whole entry): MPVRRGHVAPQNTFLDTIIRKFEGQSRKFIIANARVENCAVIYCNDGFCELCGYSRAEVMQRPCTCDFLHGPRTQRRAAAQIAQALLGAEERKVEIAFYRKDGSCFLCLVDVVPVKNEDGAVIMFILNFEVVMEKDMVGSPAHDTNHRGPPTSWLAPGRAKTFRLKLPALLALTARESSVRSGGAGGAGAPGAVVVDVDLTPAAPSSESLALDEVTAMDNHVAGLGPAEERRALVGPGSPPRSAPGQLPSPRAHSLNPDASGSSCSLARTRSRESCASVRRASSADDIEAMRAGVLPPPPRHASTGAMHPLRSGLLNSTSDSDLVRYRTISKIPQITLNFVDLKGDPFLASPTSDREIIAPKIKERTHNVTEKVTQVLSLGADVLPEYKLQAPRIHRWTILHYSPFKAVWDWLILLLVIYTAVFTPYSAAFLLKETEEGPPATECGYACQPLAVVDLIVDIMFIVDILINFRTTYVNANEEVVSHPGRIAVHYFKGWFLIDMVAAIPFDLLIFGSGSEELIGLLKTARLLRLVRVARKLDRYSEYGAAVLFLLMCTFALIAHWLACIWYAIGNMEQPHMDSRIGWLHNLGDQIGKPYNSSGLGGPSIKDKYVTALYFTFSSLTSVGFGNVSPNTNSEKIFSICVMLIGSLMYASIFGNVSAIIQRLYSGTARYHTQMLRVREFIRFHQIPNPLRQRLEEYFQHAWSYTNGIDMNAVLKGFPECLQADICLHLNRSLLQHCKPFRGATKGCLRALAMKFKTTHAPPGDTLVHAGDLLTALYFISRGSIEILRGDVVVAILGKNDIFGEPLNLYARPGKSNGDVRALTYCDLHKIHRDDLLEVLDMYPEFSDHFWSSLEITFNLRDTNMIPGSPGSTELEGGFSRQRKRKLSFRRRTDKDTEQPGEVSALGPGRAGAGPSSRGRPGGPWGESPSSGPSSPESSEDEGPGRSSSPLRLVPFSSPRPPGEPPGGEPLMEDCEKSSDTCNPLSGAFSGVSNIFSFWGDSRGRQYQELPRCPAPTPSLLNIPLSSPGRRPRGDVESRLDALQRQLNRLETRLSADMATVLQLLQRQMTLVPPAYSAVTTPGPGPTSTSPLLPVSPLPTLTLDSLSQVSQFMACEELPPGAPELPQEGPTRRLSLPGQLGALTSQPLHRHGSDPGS

Compound	inhibition [1]	inhibition [2]	inhibition [3]	inhibition [4]	inhibition [5]	inhibition [6]	IC50 [7]	activity at 10 µM [8]	inhibition [9]	inhibition [10]	activity at 10 µM [11]
CCn1c(=O)c(C)cn(Cc2nnc(-c3ccc(F)c(O)c3F)s2)c1=O	5.93%	0.69%	29.3%	-6.39%	-2.66%	-2.92%	–	–	–	–	–
CCn1c(=O)c(C)cn(Cc2nnc(-c3ccc(F)c(OC)c3F)s2)c1=O	–	–	–	–	–	–	> 10 µM (not active)	88% (not active)	-5.43%	-1.07%	100% (not active)
